From US20200060276A1, “THIAZOLE COMPOUND AND HERBICIDE” (OAT Agrio Co., Ltd., priority 2017, published 2020) come the findings set out here.

What all share (assay type): in vivo
Assay [1] relates to Echinochloa crus-galli (L.) P. Beauv. var. formosensis Ohwi. As to the kind of experiment: Test for Herbicidal Effect in Flooding Treatment (#1), ECHDG. The settings on record: flooding treatment at seeding, dose 2 kg/ha, visual observation on day 21. The gist of the method:
(§1)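 Visual scores from 0 (<10% inhibition) to 5 (≥90% or complete withering) were taken 21 days after treatment of glasshouse-grown plants. Seeds were sown in soil flooded for 24 h beforehand, and compound was applied dropwise onto the surface at 2 kg/ha as an acetone solution diluted in water with Tween 80.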

The next assay concerns Monochoria vaginalis. The assay is described as follows: Test for Herbicidal Effect in Flooding Treatment (#1), MONVA. The settings on record: flooding treatment at seeding, dose 2 kg/ha, visual observation on day 21. In outline:
as §1

Another assay concerns Scirpus juncoides. As to the kind of experiment: Test for Herbicidal Effect in Flooding Treatment (#1), SCIJU. The settings on record: flooding treatment at seeding, dose 2 kg/ha, visual observation on day 21. In outline:
as §1

Assay [2] concerns Echinochloa crus-galli (L.) P. Beauv. var. formosensis Ohwi. As to the kind of experiment: Test for Herbicidal Effect in Flooding Treatment (#2), ECHDG at 2-2.5 leaf stage. The settings on record: flooding treatment at 2-2.5 leaf stage, dose 0.2 kg/ha, visual observation on day 21. The gist of the method:
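Flooded muddy soil was seeded with the weed, and at 2–2.5 leaf stage compound in acetone/Tween 80 water was dropped on the water surface at 0.2 kg/ha. Plants were kept in a glasshouse and scored visually on day 21 from 0 (<10% growth inhibition) to 5 (≥90% or complete withering).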

`[2H]C([2H])(c1c(F)cccc1OC(F)F)S(=O)(=O)c1ncc(Cl)s1` [Compound 1C-131]: the “ECHDG #1 herbicidal effect (growth inhibition grade)” value in assay [1] is 5 (Growth inhibition effect is equal to or greater than 90%, or complete withering is achieved). Further, in the assay with Monochoria vaginalis, the “MONVA #1 herbicidal effect (growth inhibition grade)” value is 5 (Growth inhibition effect is equal to or greater than 90%, or complete withering is achieved). Also, the “SCIJU #1 herbicidal effect (growth inhibition grade)” value in the assay on Scirpus juncoides is reported as 5 (Growth inhibition effect is equal to or greater than 90%, or complete withering is achieved). In assay [2], the “ECHDG (2-2.5L) #2 herbicidal effect (growth inhibition grade)” value was 5 (Growth inhibition effect is equal to or greater than 90%, or complete withering is achieved).
Consider `[2H]C([2H])(c1c(Cl)cccc1OC(F)F)S(=O)(=O)c1ncc(Cl)s1` [Compound 1C-132], for which the “ECHDG #1 herbicidal effect (growth inhibition grade)” value in assay [1] is 5 (Growth inhibition effect is equal to or greater than 90%, or complete withering is achieved). In addition, the “MONVA #1 herbicidal effect (growth inhibition grade)” value in the assay on Monochoria vaginalis is reported as 5 (Growth inhibition effect is equal to or greater than 90%, or complete withering is achieved). Also, the “SCIJU #1 herbicidal effect (growth inhibition grade)” value in the assay with Scirpus juncoides is 5 (Growth inhibition effect is equal to or greater than 90%, or complete withering is achieved). Besides, the “ECHDG (2-2.5L) #2 herbicidal effect (growth inhibition grade)” value in assay [2] was 5 (Growth inhibition effect is equal to or greater than 90%, or complete withering is achieved).
`[2H]C([2H])(c1c(Cl)cccc1OC(F)(F)F)S(=O)(=O)c1ncc(Cl)s1` [Compound 1C-133]: the “ECHDG #1 herbicidal effect (growth inhibition grade)” value in assay [1] was 5 (Growth inhibition effect is equal to or greater than 90%, or complete withering is achieved). Further, in the assay on Monochoria vaginalis, the “MONVA #1 herbicidal effect (growth inhibition grade)” value is recorded as 5 (Growth inhibition effect is equal to or greater than 90%, or complete withering is achieved). Further, the “SCIJU #1 herbicidal effect (growth inhibition grade)” value in the assay on Scirpus juncoides is recorded as 5 (Growth inhibition effect is equal to or greater than 90%, or complete withering is achieved). Also, the “ECHDG (2-2.5L) #2 herbicidal effect (growth inhibition grade)” value in assay [2] is 5 (Growth inhibition effect is equal to or greater than 90%, or complete withering is achieved).
Consider `[2H]C([2H])(c1ccccc1OCC(F)(F)F)S(=O)(=O)c1ncc(Cl)s1` [Compound 1C-134], for which the “ECHDG #1 herbicidal effect (growth inhibition grade)” value in assay [1] is given as 5 (Growth inhibition effect is equal to or greater than 90%, or complete withering is achieved). Besides, in the assay with Monochoria vaginalis, the “MONVA #1 herbicidal effect (growth inhibition grade)” value is 5 (Growth inhibition effect is equal to or greater than 90%, or complete withering is achieved). Further, the “SCIJU #1 herbicidal effect (growth inhibition grade)” value in the assay with Scirpus juncoides is on record as 5 (Growth inhibition effect is equal to or greater than 90%, or complete withering is achieved). In addition, the “ECHDG (2-2.5L) #2 herbicidal effect (growth inhibition grade)” value in assay [2] is 5 (Growth inhibition effect is equal to or greater than 90%, or complete withering is achieved).
Take `[2H]C([2H])(c1c(Cl)cccc1OCC(F)(F)F)S(=O)(=O)c1ncc(Cl)s1` [Compound 1C-135]: the “ECHDG #1 herbicidal effect (growth inhibition grade)” value in assay [1] is 5 (Growth inhibition effect is equal to or greater than 90%, or complete withering is achieved). The “MONVA #1 herbicidal effect (growth inhibition grade)” value in the assay on Monochoria vaginalis is recorded as 5 (Growth inhibition effect is equal to or greater than 90%, or complete withering is achieved). The “SCIJU #1 herbicidal effect (growth inhibition grade)” value in the assay with Scirpus juncoides is on record as 5 (Growth inhibition effect is equal to or greater than 90%, or complete withering is achieved). In assay [2], the “ECHDG (2-2.5L) #2 herbicidal effect (growth inhibition grade)” value was 5 (Growth inhibition effect is equal to or greater than 90%, or complete withering is achieved).
In the case of `[2H]C([2H])(c1c(Cl)ccc(OC)c1F)S(=O)(=O)c1ncc(Cl)s1` [Compound 1C-136], the “ECHDG #1 herbicidal effect (growth inhibition grade)” value in assay [1] was 5 (Growth inhibition effect is equal to or greater than 90%, or complete withering is achieved). Also, the “MONVA #1 herbicidal effect (growth inhibition grade)” value with Monochoria vaginalis is recorded as 5 (Growth inhibition effect is equal to or greater than 90%, or complete withering is achieved). The “SCIJU #1 herbicidal effect (growth inhibition grade)” value in the assay with Scirpus juncoides is on record as 5 (Growth inhibition effect is equal to or greater than 90%, or complete withering is achieved). In addition, the “ECHDG (2-2.5L) #2 herbicidal effect (growth inhibition grade)” value in assay [2] is given as 5 (Growth inhibition effect is equal to or greater than 90%, or complete withering is achieved).
Consider `[2H]C([2H])(c1c(Cl)ccc(OC)c1Cl)S(=O)(=O)c1ncc(Cl)s1` [Compound 1C-137], for which the “ECHDG #1 herbicidal effect (growth inhibition grade)” value in assay [1] was 5 (Growth inhibition effect is equal to or greater than 90%, or complete withering is achieved). In addition, the “MONVA #1 herbicidal effect (growth inhibition grade)” value in the assay on Monochoria vaginalis is given as 5 (Growth inhibition effect is equal to or greater than 90%, or complete withering is achieved). Also, in the assay with Scirpus juncoides, the “SCIJU #1 herbicidal effect (growth inhibition grade)” value is on record as 5 (Growth inhibition effect is equal to or greater than 90%, or complete withering is achieved). In assay [2], the “ECHDG (2-2.5L) #2 herbicidal effect (growth inhibition grade)” value was 5 (Growth inhibition effect is equal to or greater than 90%, or complete withering is achieved).
Regarding `CCOc1ccc(Cl)cc1C(F)(F)S(=O)(=O)c1ncc(Cl)s1` [Compound 1C-138], the “ECHDG #1 herbicidal effect (growth inhibition grade)” value in assay [1] is given as 5 (Growth inhibition effect is equal to or greater than 90%, or complete withering is achieved). Further, in the assay on Monochoria vaginalis, the “MONVA #1 herbicidal effect (growth inhibition grade)” value is 5 (Growth inhibition effect is equal to or greater than 90%, or complete withering is achieved). Also, in the assay on Scirpus juncoides, the “SCIJU #1 herbicidal effect (growth inhibition grade)” value is on record as 5 (Growth inhibition effect is equal to or greater than 90%, or complete withering is achieved). The “ECHDG (2-2.5L) #2 herbicidal effect (growth inhibition grade)” value in assay [2] is 3 (Growth inhibition effect equal to or greater than 50%, and less than 70%).
With `CC(C)(c1c(F)cccc1OCC(F)F)S(=O)(=O)c1ncc(Cl)s1` [Compound 1C-143], the “ECHDG #1 herbicidal effect (growth inhibition grade)” value in assay [1] is 5 (Growth inhibition effect is equal to or greater than 90%, or complete withering is achieved). The “MONVA #1 herbicidal effect (growth inhibition grade)” value with Monochoria vaginalis is given as 5 (Growth inhibition effect is equal to or greater than 90%, or complete withering is achieved). The “SCIJU #1 herbicidal effect (growth inhibition grade)” value in the assay on Scirpus juncoides is 5 (Growth inhibition effect is equal to or greater than 90%, or complete withering is achieved). Further, the “ECHDG (2-2.5L) #2 herbicidal effect (growth inhibition grade)” value in assay [2] was 4 (Growth inhibition effect is equal to or greater than 70%, and less than 90%).
With `CC(=O)C(C(C)=O)(c1c(F)cccc1OC(F)F)S(=O)(=O)c1ncc(Cl)s1` [Compound 1C-147], the “ECHDG #1 herbicidal effect (growth inhibition grade)” value in assay [1] is recorded as 5 (Growth inhibition effect is equal to or greater than 90%, or complete withering is achieved). Moreover, in the assay on Monochoria vaginalis, the “MONVA #1 herbicidal effect (growth inhibition grade)” value is given as 5 (Growth inhibition effect is equal to or greater than 90%, or complete withering is achieved). Also, the “SCIJU #1 herbicidal effect (growth inhibition grade)” value with Scirpus juncoides is recorded as 5 (Growth inhibition effect is equal to or greater than 90%, or complete withering is achieved). Further, the “ECHDG (2-2.5L) #2 herbicidal effect (growth inhibition grade)” value in assay [2] was 5 (Growth inhibition effect is equal to or greater than 90%, or complete withering is achieved).
With `CC(c1c(F)cccc1OCC(F)(F)C(F)F)S(=O)(=O)c1ncc(Cl)s1` (centres unmarked) [Compound 1C-148], the “ECHDG #1 herbicidal effect (growth inhibition grade)” value in assay [1] is given as 5 (Growth inhibition effect is equal to or greater than 90%, or complete withering is achieved). Also, the “MONVA #1 herbicidal effect (growth inhibition grade)” value in the assay with Monochoria vaginalis is 5 (Growth inhibition effect is equal to or greater than 90%, or complete withering is achieved). Also, the “SCIJU #1 herbicidal effect (growth inhibition grade)” value in the assay on Scirpus juncoides is on record as 5 (Growth inhibition effect is equal to or greater than 90%, or complete withering is achieved). In assay [2], the “ECHDG (2-2.5L) #2 herbicidal effect (growth inhibition grade)” value is 5 (Growth inhibition effect is equal to or greater than 90%, or complete withering is achieved).
For `O=S(=O)(Cc1c(F)cccc1OC(F)F)c1ncc(Br)s1` [Compound 1C-153], the “ECHDG #1 herbicidal effect (growth inhibition grade)” value in assay [1] is 5 (Growth inhibition effect is equal to or greater than 90%, or complete withering is achieved). The “MONVA #1 herbicidal effect (growth inhibition grade)” value with Monochoria vaginalis is on record as 5 (Growth inhibition effect is equal to or greater than 90%, or complete withering is achieved). Further, the “SCIJU #1 herbicidal effect (growth inhibition grade)” value in the assay with Scirpus juncoides is reported as 5 (Growth inhibition effect is equal to or greater than 90%, or complete withering is achieved). In addition, in assay [2], the “ECHDG (2-2.5L) #2 herbicidal effect (growth inhibition grade)” value is recorded as 5 (Growth inhibition effect is equal to or greater than 90%, or complete withering is achieved).
Take `O=S(=O)(Cc1c(Cl)cccc1OC(F)F)c1ncc(Br)s1` [Compound 1C-154]: the “ECHDG #1 herbicidal effect (growth inhibition grade)” value in assay [1] is recorded as 5 (Growth inhibition effect is equal to or greater than 90%, or complete withering is achieved). Moreover, the “MONVA #1 herbicidal effect (growth inhibition grade)” value in the assay with Monochoria vaginalis is listed as 5 (Growth inhibition effect is equal to or greater than 90%, or complete withering is achieved). Also, the “SCIJU #1 herbicidal effect (growth inhibition grade)” value with Scirpus juncoides was 5 (Growth inhibition effect is equal to or greater than 90%, or complete withering is achieved). For the same compound, the “ECHDG (2-2.5L) #2 herbicidal effect (growth inhibition grade)” value in assay [2] is 5 (Growth inhibition effect is equal to or greater than 90%, or complete withering is achieved).
As to `O=S(=O)(Cc1c(F)ccc(F)c1OC(F)F)c1ncc(Br)s1` [Compound 1C-155], the “ECHDG #1 herbicidal effect (growth inhibition grade)” value in assay [1] is given as 5 (Growth inhibition effect is equal to or greater than 90%, or complete withering is achieved). The “MONVA #1 herbicidal effect (growth inhibition grade)” value with Monochoria vaginalis is listed as 5 (Growth inhibition effect is equal to or greater than 90%, or complete withering is achieved). Further, the “SCIJU #1 herbicidal effect (growth inhibition grade)” value in the assay with Scirpus juncoides is 5 (Growth inhibition effect is equal to or greater than 90%, or complete withering is achieved). Further, in assay [2], the “ECHDG (2-2.5L) #2 herbicidal effect (growth inhibition grade)” value is given as 5 (Growth inhibition effect is equal to or greater than 90%, or complete withering is achieved).
